From US12350317B2, “Immunotherapy for the treatment and prevention of inflammatory bowel disease” (THE UAB RESEARCH FOUNDATION, priority 2019, dated 2025)

Tests used:
DR1501 (HLA-DR15) = DR1501 (HLA-DR15) (Homo sapiens, UniProt P01903+P01911); test: Flagellin peptide binding to HLA-DR (DR1501); conditions: <20 = high affinity, 20-100 moderate affinity
From the text: (§1) CD4+ T cell effectors mediate colitis in mouse models. These effectors, for example, Th1 and Th17 are short-lived. The CD4+ T cell memory pool is a reservoir of chronicity and regenerating T effector cells. CD4+ TM cells are widely distributed in CBir1 TCR Tg mice (FIG. 1). Flagellin specific T cells can cause murine colitis, mainly Th17 mediated. Anti-CBir1 was detected in 50% of Crohn's patients and in multiple mouse models. The presence of anti-Cbir1 in CD patients is associated with small bowel (SB) involvement, fibrostenosis and internal perforating phenotypes, independent of anti-Saccharomyces cerevisiae antibodies (ASCA), anti-[…] antibodies and anti-OmpC antibodies. A subset of Crohn's patients has broad IgG reactivity to microbiota flagellins (FIG. 2). Flagellins have promiscuous T cell receptor epitopes. Therefore, whether microbiota flagellins contain epitope peptides that are broadly reactive in humans and can stimulate both TM and Tregs across a population of patients with Crohn's disease was studied. Peptides predicted to bind to 8 or more HLA-DRB1 molecules and to mouse H-2^b or H-2^d were studied. Thirty predicted flagellin epitopes were tested for binding to the four most common HLA-DR dimers (HLA-DR3, HLA-DR7, HLA-DR11 and HLA-DR15). All predicted flagellin epitopes bound at least one of the four HLA-DR dimers, and twenty of the predicted epitopes bound two or more.

DR1101 (HLA-DR11) = DR1101 (HLA-DR11) (Homo sapiens, UniProt P01903+P01911, A100R/A169T/A87E/I96F/K41T/L162R/M171V/P40S/Q125H/Q178H/Q39Y/Q99D/R42S/S66Y/T262R/V115G/W38E); test: Flagellin peptide binding to HLA-DR (DR1101); conditions: <20 = high affinity, 20-100 moderate affinity
From the text: as §1

DR0701 (HLA-DR7) = test: Flagellin peptide binding to HLA-DR (DR0701); design: species or system human; conditions: <20 = high affinity, 20-100 moderate affinity
From the text: as §1

[1] = test system: microbiota flagellin-specific CD4+ T cells; test: Survival, proliferation and cytokine production of flagellin-specific CD4+ T cells from Crohn's patients; conditions: for Cytokine production (IFNγ, TNFα and IL-17A) upon re-stimulation: 6-7 hours re-stimulation with APCs and Fla mix
Method: (§2) Microbiota flagellin-specific CD4^+ T cells were labeled with proliferation dye and re-stimulated with autologous APCs plus Fla mix in the presence of 50 nM rapamycin, 1 mM metformin, or both. Phosphorylation of S6K was examined after 6 hours of stimulation (H and K), whereas CD4^+ T cell survival (I and L) and proliferation (J and M) were examined after 6-7 days.
Expanded CD154^+ antigen-specific CD4^+ T cells were re-stimulated with autologous APCs and Fla mix, Fla mix with rapamycin, Fla mix with metformin, or Fla mix with rapamycin and metformin for 6-7 hours, with BFA added for the last 4 hours. CD4^+ T cells stimulated with CD3/CD28 beads were used as a positive control, whereas cells with no antigen added were used as a negative control. The cells were then stained for cytokines (TNF and IL-17A), activation of mTOR via the downstream marker phospho-S6K and analyzed by flow cytometry.
(§3) Therefore, in order to target the metabolism of both naïve and memory CD4+ subsets, rapamycin, metformin, or both were tested, for their inhibitory effects on these cells post expansion.

[2] = test system: CBir1Tg CD4+CD44- naive T cells; test: Naive CBir1Tg CD4+ T cell glucose uptake, viability, proliferation and Treg induction in vitro; assay type: cell-based, mouse
Method: CBir1Tg CD4^+CD44-naïve T cells were isolated from the spleen and co-cultured with irradiated antigen-presenting-cells (APCs) isolated from C57BL/6 mice, in the presence of 1 μg/ml of MEP1 with (blue) or without (red) 100 nM rapamycin. Phosphorylation of S6K in CBir1Tg CD4^+ T cells was examined after 20 hrs of stimulation. […] OVA p323-339 stimulation was used as a negative control (grey). Representative flow plots are shown in (A-D, and I), and statistics of 3 replicated experiments are shown in (E-H, and J). For in vitro and in vivo suppression assays, naïve CD4+ cells were isolated from CBir1Tg·Foxp3gfp spleen and cultured with MEP1 and rapamycin for 6 days for Treg induction. Then live CD4^+CD25^+GFP^+ Treg cells were sorted with flow cytometry as CBir1Tg iTreg Rapa. Live CD4^+CD25^+GFP^+ cells freshly isolated from naïve CBir1Tg·Foxp3gfp spleen were used as control (CBir1Tg tTreg) for suppression assay in vitro. CFSE labeled responder CD4+CD44-(Tn) cells were isolated from congenic CBir1Tg or C57BL/6 mouse and co-cultured with indicated ratios of CBir1Tg Treg cells in the presence of 1 μg/ml MEP1 or anti-mouse-CD3 and APCs for 3.5 days. Representative graphs of antigen-specific and bystander suppression are shown in (K and M), respectively, and accumulated percentage of suppression are shown in (L and N). […]

S6 kinase (S6K) = test: S6K phosphorylation in naive CBir1Tg CD4+ T cells co-cultured with APCs and MEP1; assay type: cell-based, mouse; conditions: 100 nM rapamycin, APCs and MEP1, 20 hrs
Method: CBir1Tg CD4^+CD44-naïve T cells were isolated from the spleen and co-cultured with irradiated antigen-presenting-cells (APCs) isolated from C57BL/6 mice, in the presence of 1 μg/ml of MEP1 with (blue) or without (red) 100 nM rapamycin. Phosphorylation of S6K in CBir1Tg CD4^+ T cells was examined after 20 hrs of stimulation. CBir1Tg CD4^+ T cell viability, uptake of fluorescent glucose analog 2-NBDG, proliferation, and Treg induction were determined with FACS after 90 hrs of co-culture. OVA p323-339 stimulation was used as a negative control (grey). Representative flow plots are shown in (A-D, and I), and statistics of 3 replicated experiments are shown in (E-H, and J). For in vitro and in vivo suppression assays, naïve CD4+ cells were isolated from CBir1Tg·Foxp3gfp spleen and cultured with MEP1 and rapamycin for 6 days for Treg induction. Then live CD4^+CD25^+GFP^+ Treg cells were sorted with flow cytometry as CBir1Tg iTreg Rapa. Live CD4^+CD25^+GFP^+ cells freshly isolated from naïve CBir1Tg·Foxp3gfp spleen were used as control (CBir1Tg tTreg) for suppression assay in vitro. CFSE labeled responder CD4+CD44-(Tn) cells were isolated from congenic CBir1Tg or C57BL/6 mouse and co-cultured with indicated ratios of CBir1Tg Treg cells in the presence of 1 μg/ml MEP1 or anti-mouse-CD3 and APCs for 3.5 days. […]

[3] = test system: ribosomal protein S6 kinase; test: S6K phosphorylation in flagellin-specific CD4+ T cells from Crohn's patients; assay type: cell-based, human; conditions: re-stimulation with pooled flagellin
Method: as §2, §3
Therefore, in order to target the metabolism of both naïve and memory CD4^+ subsets, rapamycin, metformin, or both, were tested for their inhibitory effects on these cells post expansion.

[4] = test system: donor CBir1Tg CD4+ TM cells; test: Ablation of pre-existing antigen-specific CD4+ TM cells in C57BL/6 mice upon MEP1 challenge; assay type: in vivo, mouse; conditions: rapamycin 1 μg/g/day, metformin 150 μg/g/day i.p. 5 days after MEP1 challenge days 28 and 35; day 42
Method: (§4) (A) CBir1Tg CD4^+CD44^+ TM cells were isolated from the spleen, labeled with CFSE, and co-cultured with irradiated APCs isolated from C57BL/6 mice in the presence of 1 μg/ml of MEP1, and 100 nM rapamycin, 1 mM metformin, or both. Absolute numbers of live and proliferating CD4^+ T cells post 90 hrs of culturing are shown respectively. OVA p323-339 stimulation was used as negative control. (B) Strategy of adoptive transfer, immunization, and ablation of donor CD4^+ TM cells. […] Mice without challenge and mice treated with 0.2% CMC post challenge were used as controls. Lymphocytes were isolated from the spleen on Day 42 and analyzed with FACS. Representative plots of donor/host CD4^+, donor CD4^+ TM, Treg, and Tfh are shown in (C), whereas statistics of corresponding absolute numbers are shown in (D-G).
(§5) This was tested in vivo by targeting established microbiota antigen-specific CD4+ TM cells in the periphery. […] Upon antigen challenge, on days 28 and 35, recipient mice were treated with metformin, rapamycin, the combination of both, or drug vehicle for 5 consecutive days, respectively. Recipient mice with immunization but no antigen challenge were used as controls (FIG. 10B). Assessed by the absolute numbers recovered from the spleen.

[5] = test system: CBir1Tg CD4+CD44+ TM cells; test: CBir1Tg CD4+ TM cells co-cultured with APCs and MEP1 in vitro; assay type: cell-based, mouse
Method: as §4, §5

Sequence of DR1101 (HLA-DR11) (P01903 26-254, other chains not shown): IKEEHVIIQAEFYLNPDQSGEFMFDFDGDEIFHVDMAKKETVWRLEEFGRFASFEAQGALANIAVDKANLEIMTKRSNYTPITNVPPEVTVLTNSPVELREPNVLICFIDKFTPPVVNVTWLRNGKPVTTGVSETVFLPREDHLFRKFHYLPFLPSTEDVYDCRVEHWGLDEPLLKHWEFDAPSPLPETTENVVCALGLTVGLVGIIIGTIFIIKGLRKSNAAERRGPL

MVVQHNLRAMNSNRMLGITQ [FlaX p1-20, Lachnospiraceae FlaX flagellin peptide 1-20]
EC50 Ratio (DR1501 (HLA-DR15)): 0.33

MVVQHNLRAMNANRMLGIT [A4 Fla3 p1-19, Lachnospiraceae A4 Fla3 flagellin peptide 1-19]
EC50 Ratio (DR1101 (HLA-DR11)): 0.2 | EC50 Ratio (DR1501 (HLA-DR15)): 0.32 | EC50 Ratio (DR0701 (HLA-DR7)): 2.5

CO[C@H]1C[C@@H]2CC[C@@H](C)[C@@](O)(O2)C(=O)C(=O)N2CCCC[C@H]2C(=O)O[C@H]([C@H](C)C[C@@H]2CC[C@@H](O)[C@H](OC)C2)CC(=O)[C@H](C)/C=C(\C)[C@@H](O)[C@@H](OC)C(=O)[C@H](C)C[C@H](C)/C=C/C=C/C=C/1C [rapamycin]
Cytokine production (IFNγ, TNFα and IL-17A) upon re-stimulation [1]: no effect | Reduction of cell proliferation ([2]; 100 nM rapamycin, in presence of cognate antigen MEP1, 90 hrs): roughly 10 fold | Increase of Treg cells in percentage ([2]; MEP1 and rapamycin vs MEP1 alone): 20 fold | Reduction of phosphorylation of S6 kinase (S6K) (S6 kinase (S6K)): roughly 60% | Reduction of phosphorylation of S6K compared to antigen alone ([3]; 50 nM rapamycin, 6 hours): ~50%

CN(C)C(=N)N=C(N)N [metformin]
Cell death ([1]; 50 nM rapamycin or 1 mM metformin, 6-7 days): lesser extent of increased cell death | Cell proliferation ([1]; 50 nM rapamycin, 1 mM metformin, or both, 6-7 days): decreased proliferation | Cytokine production (IFNγ, TNFα and IL-17A) upon re-stimulation [1]: neither rapamycin or metformin treatment altered the cytokine production | Expansion of CBir1Tg CD4+ cells after antigen challenge (absolute numbers in spleen) [4]: no inhibitory result | Inhibitory effect on the mTOR pathway ([3]; 1 mM metformin alone): no inhibitory effect | Cell death / survival and inhibition of cell proliferation of CD4+ TM cells [5]: comparable effect, or even worse, than rapamycin

MATEMVKYSNANILSQAGQ [CBir1 p456-475]
EC50 Ratio (DR1501 (HLA-DR15)): 0.32 | EC50 Ratio (DR0701 (HLA-DR7)): 3.7
